According to ChEMBL document CHEMBL1136661, “Interfacial peptide inhibitors of HIV-1 integrase activity and dimerization” (Bioorg Med Chem Lett, 2003):

target: Human immunodeficiency virus type 1 integrase (Human immunodeficiency virus 1, UniProt Q7ZJM1); test: Inhibitory activity of compound against HIV-1 integrase
Sequence (Q7ZJM1 whole entry): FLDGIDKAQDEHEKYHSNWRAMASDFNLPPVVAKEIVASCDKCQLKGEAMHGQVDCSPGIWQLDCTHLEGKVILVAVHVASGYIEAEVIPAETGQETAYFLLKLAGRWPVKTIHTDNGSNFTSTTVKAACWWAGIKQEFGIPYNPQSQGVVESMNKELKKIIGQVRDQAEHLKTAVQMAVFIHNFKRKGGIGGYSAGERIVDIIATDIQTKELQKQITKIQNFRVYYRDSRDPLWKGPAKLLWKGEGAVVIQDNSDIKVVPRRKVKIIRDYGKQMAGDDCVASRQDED

IC50	Compound
150 µM	H-QETAYFLLKLAGR-NH2
30 µM	CC[C@@H](C)[C@H](NC(=O)[C@H](CCCNC(=N)N)NC(=O)[C@H](CCC(=O)O)NC(=O)CNC(=O)[C@H](C)N)C(=O)N[C@H](C(=O)N[C@@H](CC(=O)O)C(=O)N[C@H](C(=O)N[C@H](C(=O)N[C@@H](C)C(N)=O)[C@@H](C)CC)[C@@H](C)CC)C(C)C
3 µM	H-HLKTAVQMAVFIHNFKR-NH2
> 1000 µM	H-GYIEAEVI-NH2
35 µM	H-QETAYFLLKLAGRWP-NH2
> 1000 µM	H-STTVKAASWWA-NH2
2 µM	H-AGERIVDIIATDIQ-NH2
